According to ChEMBL document CHEMBL5518249, “Structure-Guided Discovery and Preclinical Assessment of Novel (Thiophen-3-yl)aminopyrimidine Derivatives as Potent ERK1/2 Inhibitors” (J Med Chem, 2024):

Columns and labels:
[1] = test system: MDA-MB-231; assay: cells; conditions: Homo sapiens, MDA-MB-231, 24 h
Description: Antiproliferative activity against human MDA-MB-231 cells assessed as cell viability incubated for 24 hrs by methyl thiazolyl tetrazolium (MTT) assay

[2] = test system: RKO; assay: cells; conditions: Homo sapiens, 24 h
Description: Antiproliferative activity against human RKO cells assessed as cell viability incubated for 24 hrs by methyl thiazolyl tetrazolium (MTT) assay

[3] = target: Mitogen-activated protein kinase 3 (Homo sapiens, UniProt P27361)
Description: Inhibition of ERK1 (unknown origin) assessed as luminescence in presence of ATP incubated for 90 mins by ADP-Glo kinase assay

[4] = test system: RKO; assay: animal or person; format: functional, Homo sapiens; conditions: Mus musculus, po, 360 h, route ig, time 15 day, read-out: TGI
Description: In vivo antitumor activity against human RKO cells xenografted in BALB/c mouse model assessed as tumor growth inhibition at 50 mg/kg, IG once daily for 15 days relative to control

[5] = test system: MDA-MB-231; assay: animal or person; format: functional, Homo sapiens; conditions: Mus musculus, MDA-MB-231, po, 360 h, route ig, time 15 day, read-out: TGI
Description: In vivo antitumor activity against human MDA-MB-231 cells xenografted in BALB/c mouse model assessed as tumor growth inhibition at 50 mg/kg, IG once daily for 15 days relative to control

Sequence of Mitogen-activated protein kinase 3 (P27361 whole entry): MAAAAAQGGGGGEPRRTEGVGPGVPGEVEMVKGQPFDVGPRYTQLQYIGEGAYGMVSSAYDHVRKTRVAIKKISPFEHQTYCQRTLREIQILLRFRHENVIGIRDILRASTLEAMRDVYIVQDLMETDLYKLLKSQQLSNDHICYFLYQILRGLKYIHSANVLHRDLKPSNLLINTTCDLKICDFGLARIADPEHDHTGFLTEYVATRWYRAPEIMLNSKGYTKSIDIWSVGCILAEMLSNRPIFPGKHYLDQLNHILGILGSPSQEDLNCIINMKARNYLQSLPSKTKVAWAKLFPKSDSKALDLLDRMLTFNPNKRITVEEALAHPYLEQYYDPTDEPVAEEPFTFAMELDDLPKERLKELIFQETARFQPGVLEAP

`Cn1nccc1Nc1ncc(Cl)c(-c2csc(C(=O)NCc3ccc(Cl)c(F)c3)c2)n1` showed an IC50 [1] of 11.5 µM and an IC50 [2] of 12.6 µM.
With `Cn1nccc1Nc1ncc(Cl)c(-c2csc(C(=O)NCc3ccc(C(F)(F)F)cc3)c2)n1` the IC50 [1] was 39.4 µM and the IC50 [2] was 41.2 µM.
Compound `Cn1nccc1Nc1ncc(Cl)c(-c2csc(C(=O)NCc3ccccc3F)c2)n1` has an IC50 [1] of over 50 µM and an IC50 [2] of over 50 µM.
For `Cn1nccc1Nc1ncc(Cl)c(-c2csc(C(=O)NCc3ccc(Cl)c(Cl)c3)c2)n1`, the IC50 [1] was 12.4 µM and the IC50 [2] was 10.2 µM.
Compound `Cn1nccc1Nc1ncc(Cl)c(-c2csc(C(=O)NCc3cccc(C(F)(F)F)c3)c2)n1` has an IC50 [1] of 21.1 µM and an IC50 [2] of 24.5 µM.
With `Cc1cnccc1Nc1ncc(Cl)c(-c2csc(C(=O)NCc3ccc(F)c(Cl)c3)c2)n1` the IC50 [1] was 6.26 µM and the IC50 [2] was 5.41 µM.
`Cn1cc(Nc2ncc(Cl)c(-c3csc(C(=O)NCc4ccc(F)c(Cl)c4)c3)n2)cn1` gave an IC50 [1] of 36.6 µM and an IC50 [2] of 20.2 µM.
`Cn1nccc1Nc1ncc(Cl)c(-c2csc(C(=O)NCc3ccc(F)cc3)c2)n1` gave an IC50 [1] of 15.8 µM and an IC50 [2] of 14.5 µM.
`Cn1nccc1Nc1ncc(Cl)c(-c2csc(C(=O)NCc3ccccc3Br)c2)n1` was tested, and the IC50 [1] was over 50 µM and the IC50 [2] was over 50 µM.
Compound `Cn1nccc1Nc1ncc(Cl)c(-c2csc(C(=O)NCCN3CCOCC3)c2)n1` has an IC50 [1] of 39.4 µM and an IC50 [2] of 50.6 µM.
For `Cn1nccc1Nc1ncc(Cl)c(-c2csc(C(=O)NCc3ccc(F)cc3F)c2)n1`, the IC50 [1] was over 50 µM and the IC50 [2] was over 50 µM.
`Cn1ccc(Nc2ncc(Cl)c(-c3csc(C(=O)NCc4ccc(F)c(Cl)c4)c3)n2)n1` was tested, and the IC50 [1] was over 50 µM and the IC50 [2] was 49.4 µM.
Compound `Cn1nccc1Nc1ncc(Cl)c(-c2csc(C(=O)NCc3ccc(Cl)cc3F)c2)n1` has an IC50 [1] of 48.2 µM and an IC50 [2] of 39 µM.
`Cn1nccc1Nc1ncc(Cl)c(-c2csc(C(=O)NCc3cccc(Br)c3)c2)n1` showed an IC50 [1] of over 50 µM and an IC50 [2] of over 50 µM.
For `Cn1nccc1Nc1ncc(Cl)c(-c2csc(C(=O)NC3CCOCC3)c2)n1`, the IC50 [3] was 0.0254 µM.
`Cn1cc(Nc2ncc(Cl)c(-c3csc(C(=O)NCc4ccc(F)c(Cl)c4)c3)n2)c(C(F)(F)F)n1` gave an IC50 [1] of over 50 µM and an IC50 [2] of over 50 µM.
`COc1cccc(CNC(=O)c2cc(-c3nc(Nc4ccnn4C)ncc3Cl)cs2)c1` gave an IC50 [1] of 29.4 µM and an IC50 [2] of 33.4 µM.
`COc1ccccc1CNC(=O)c1cc(-c2nc(Nc3ccnn3C)ncc2Cl)cs1` was tested, and the IC50 [1] was over 50 µM and the IC50 [2] was over 50 µM.
`CC(C)Nc1cc(-c2c[nH]c(C(=O)N[C@H](CO)c3cccc(Cl)c3)c2)c(Cl)cn1` [ULIXERTINIB] gave an inhibition in vivo at 50 mg/kg [4] of 47.4% and an inhibition in vivo at 50 mg/kg [5] of 39.3%.
